According to the Kinase Knowledgebase extract (Sharma et al. 2016):

System: MAPK14 (sprague-dawley rat)
Assay: IL-1 beta-induced P38 Phosphorylation
Conditions: astrocyte

Question: For CC(C)(C)/[N+]([O-])=C/c1ccccc1, which IC50 is on record?
Answer: 500 µM

Question: With CC(=O)N[C@@H](CS)C(=O)O as the compound, how does the IC50 read?
Answer: 500 µM
